Like-named read-outs stand apart in the source and are kept apart here.
Columns and labels:
NF-κB = NF-κB assay: THP1-NF-κB-LUC cells, LPS-stimulated secreted luciferase; format: cell-based; details: THP1-NF-κB-LUC cells, read-out: IC50 (NF-κB assay)
In short: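 THP1-NF-κB-LUC cells (25k/well) were pretreated with compounds for 2 h, then stimulated with LPS (10 ng/mL) for 18 h. Secreted luciferase was measured and normalized to vehicle, and IC50 was fitted from the concentration series.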

TNF release = experiment: TNF assay: TNF release from LPS-stimulated human PBMCs (TNF ELISA); format: cell-based; details: PBMC, read-out: IC50 (TNF assay)
In short: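 TNF ELISA on supernatants read-out; cells were 10k human PBMCs/well given LPS at 10 ng/mL for 18 h after a 2 h compound pre-incubation across a concentration series, with IC50 derived for suppression of TNF secretion.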

[1] = LPS-stimulated human PBMCs, TNF ELISA
[2] = compounds 2 hours before LPS (10 ng/mL) for 18 hours, secreted luciferase
[3] = human PBMCs, compounds 2 hours before LPS (10 ng/ml) for 18 hours, supernatant TNF ELISA

Structure (SMILES)	IC50 (NF-κB; LPS-stimulated)	IC50 (TNF release; [1])	IC50 (NF-κB; [2])	IC50 (TNF release; [3])
COCCNC(=O)Nc1ccc2nc(-c3ccc(F)cc3)c(-c3ccc(F)cc3)nc2c1 [BC19565]	< 0.1 µM	> 10 µM		
O=C(NCCO)Nc1ccc2nc(-c3ccc(F)cc3)c(-c3ccc(F)cc3)nc2c1 [BC19566]	< 0.1 µM	> 10 µM		
O=C(NCCN1CCOCC1)Nc1ccc2nc(-c3ccc(F)cc3)c(-c3ccc(F)cc3)nc2c1 [BC19567]	0.1 to 1 µM	1 to 10 µM		
O=C(Nc1ccc2nc(-c3ccc(F)cc3)c(-c3ccc(F)cc3)nc2c1)NC1CC1 [BC19568]	0.1 to 1 µM	> 10 µM		
O=C(NCC1CC1)Nc1ccc2nc(-c3ccc(F)cc3)c(-c3ccc(F)cc3)nc2c1 [BC19569]	0.1 to 1 µM	> 10 µM		
O=C(NCc1ccccn1)Nc1ccc2nc(-c3ccc(F)cc3)c(-c3ccc(F)cc3)nc2c1 [BC19570]	0.1 to 1 µM	> 10 µM		
O=C(NCc1cccnc1)Nc1ccc2nc(-c3ccc(F)cc3)c(-c3ccc(F)cc3)nc2c1 [BC19571]	0.1 to 1 µM	1 to 10 µM		
O=C(NCc1ccncc1)Nc1ccc2nc(-c3ccc(F)cc3)c(-c3ccc(F)cc3)nc2c1 [BC19572]	0.1 to 1 µM	> 10 µM		
CN(C)CCCNC(=O)Nc1ccc2nc(-c3ccc(F)cc3)c(-c3ccc(F)cc3)nc2c1 [BC19573]	0.1 to 1 µM	0.1 to 1 µM		
COCCCNC(=O)Nc1ccc2nc(-c3ccc(F)cc3)c(-c3ccc(F)cc3)nc2c1 [BC19574]	0.1 to 1 µM	> 10 µM		
O=C(NCCCO)Nc1ccc2nc(-c3ccc(F)cc3)c(-c3ccc(F)cc3)nc2c1 [BC19575]	0.1 to 1 µM	> 10 µM		
O=C(NCCCN1CCOCC1)Nc1ccc2nc(-c3ccc(F)cc3)c(-c3ccc(F)cc3)nc2c1 [BC19576]	0.1 to 1 µM	> 10 µM		
CN1CCN(Cc2ccc3nc(-c4ccc(F)cc4)c(-c4ccc(F)cc4)nc3c2)CC1 [BC19577]	0.1 to 1 µM	> 10 µM		
CN1CCN(C(=O)c2ccc3nc(-c4ccc(F)cc4)c(Nc4ccc(F)cc4)nc3c2)CC1 [BC19578]	> 10 µM	> 10 µM		
O=c1[nH]ccc2cc(S(=O)(=O)c3ccccc3)ccc12 [BC19579]			> 10 µM	> 10 µM
O=c1[nH]ccc2cc(Sc3ccc(F)cc3)ccc12 [BC19580]			> 10 µM	> 10 µM
CC(C)S(=O)(=O)c1[nH]c(-c2ccccc2)nc1S(=O)(=O)c1ccc(F)cc1 [BC19581]	> 10 µM	> 10 µM		
CC(C)C[S+]([O-])c1[nH]c(-c2ccccc2)nc1S(=O)(=O)c1ccc(F)cc1 (stereo not shown) [BC19582]	1 to 10 µM	> 10 µM		
O=S(=O)(c1ccc(Cl)cc1)c1nc(-c2cccc(F)c2)sc1S(=O)(=O)C1CCCCC1 [BC19583]	> 10 µM	> 10 µM		

Structure (SMILES)	IC50 (NF-κB; LPS-stimulated)	IC50 (TNF release; [1])	IC50 (NF-κB; [2])	IC50 (TNF release; [3])
CC(C)[S+]([O-])c1[nH]c(-c2ccccc2)nc1S(=O)(=O)c1ccc(Cl)cc1 (stereo not shown) [BC19584]	1 to 10 µM	> 10 µM		
CCC[S+]([O-])c1[nH]c(-c2ccccc2)nc1S(=O)(=O)c1ccc(F)cc1 (stereo not shown) [BC19585]	1 to 10 µM	> 10 µM		
O=S(=O)(c1ccc(F)cc1)c1nc(-c2ccccc2)[nH]c1[S+]([O-])C1CCCCC1 (stereo not shown) [BC19586]	1 to 10 µM	> 10 µM		
COCCS(=O)(=O)c1sc(-c2cccc(F)c2)nc1S(=O)(=O)c1ccc(F)cc1 [BC19587]	1 to 10 µM	1 to 10 µM		
CC(C)C[S+]([O-])c1sc(-c2cccc(F)c2)nc1S(=O)(=O)c1ccc(F)cc1 (stereo not shown) [BC19588]	1 to 10 µM	> 10 µM		
CCCS(=O)(=O)c1sc(-c2cccc(F)c2)nc1S(=O)(=O)c1ccc(F)cc1 [BC19589]	1 to 10 µM	1 to 10 µM		
CCC[S+]([O-])c1sc(-c2cccc(F)c2)nc1S(=O)(=O)c1ccc(F)cc1 (stereo not shown) [BC19590]	1 to 10 µM	1 to 10 µM		
CC(C)[S+]([O-])c1sc(-c2cccc(F)c2)nc1S(=O)(=O)c1ccc(F)cc1 (stereo not shown) [BC19591]	1 to 10 µM	1 to 10 µM		
O=S(=O)(CC1CC1)c1sc(-c2cccc(F)c2)nc1S(=O)(=O)c1ccc(Cl)cc1 [BC19592]	1 to 10 µM	1 to 10 µM		
CC(C)C[S+]([O-])c1sc(-c2ccc(Cl)cc2)nc1S(=O)(=O)c1ccc(F)cc1 (stereo not shown) [BC19593]	0.1 to 1 µM	1 to 10 µM		
O=S(=O)(c1ccc(F)cc1)c1nc(-c2ccc(Cl)cc2)sc1[S+]([O-])C1CCCCC1 (stereo not shown) [BC19594]	> 10 µM	> 10 µM		
C[S+]([O-])c1sc(-c2cccc(F)c2)nc1S(=O)(=O)c1ccc(F)cc1 (stereo not shown) [BC19595]	0.1 to 1 µM	0.1 to 1 µM		
CS(=O)(=O)c1sc(-c2cccc(F)c2)nc1S(=O)(=O)c1ccc(F)cc1 [BC19596]	0.1 to 1 µM	1 to 10 µM		
O=S(=O)(c1ccc(F)cc1)c1nc(-c2cccc(F)c2)sc1[S+]([O-])CC1CC1 (stereo not shown) [BC19597]	1 to 10 µM	> 10 µM		
O=S(=O)(CC1CC1)c1sc(-c2cccc(F)c2)nc1S(=O)(=O)c1ccc(F)cc1 [BC19598]	1 to 10 µM	1 to 10 µM		
COCC[S+]([O-])c1sc(-c2cccc(F)c2)nc1S(=O)(=O)c1ccc(F)cc1 (stereo not shown) [BC19599]	1 to 10 µM	1 to 10 µM		
CCC[S+]([O-])c1c(S(=O)(=O)c2ccc(F)cc2)nc(-c2ccccc2)n1C (stereo not shown) [BC19600]	> 10 µM	> 10 µM		
CC(C)[S+]([O-])c1c(S(=O)(=O)c2ccc(F)cc2)nc(-c2ccccc2)n1C (stereo not shown) [BC19601]	> 10 µM	> 10 µM		
Cn1c(-c2ccccc2)nc(S(=O)(=O)c2ccc(F)cc2)c1[S+]([O-])CC1CC1 (stereo not shown) [BC19602]	> 10 µM	> 10 µM		

Structure (SMILES)	IC50 (NF-κB; LPS-stimulated)	IC50 (TNF release; [1])	IC50 (NF-κB; [2])	IC50 (TNF release; [3])
O=C1NCCOc2c1cc(Br)cc2S(=O)(=O)Nc1ccc(Cl)cc1 [BC19603]	0.1 to 1 µM	> 10 µM		
CCc1ccc(NS(=O)(=O)c2cc(Br)cc3c2OCCNC3=O)cc1 [BC19604]	1 to 10 µM	> 10 µM		
CC(C)c1ccc(NS(=O)(=O)c2cc(Br)cc3c2OCCNC3=O)cc1 [BC19605]	> 10 µM	> 10 µM		
COc1ccc(NS(=O)(=O)c2cc(Br)cc3c2OCCNC3=O)cc1 [BC19606]	1 to 10 µM	> 10 µM		
Cc1ccc(NS(=O)(=O)c2cc(Br)cc3c2OCCNC3=O)cc1Cl [BC19607]	0.1 to 1 µM	> 10 µM		
O=C1NCCOc2c1cc(Br)cc2S(=O)(=O)Nc1ccc(F)cc1F [BC19608]	1 to 10 µM	> 10 µM		
CCc1cccc(NS(=O)(=O)c2cc(Br)cc3c2OCCNC3=O)c1 [BC19609]	1 to 10 µM	> 10 µM		
O=C1NCCOc2c1cc(Br)cc2S(=O)(=O)Nc1cccc(F)c1 [BC19610]	0.1 to 1 µM	> 10 µM		
O=C1NCCOc2c1cc(Br)cc2S(=O)(=O)Nc1cccc(Cl)c1 [BC19611]	< 0.1 µM	> 10 µM		
Cc1ccc(NS(=O)(=O)c2cc(Br)cc3c2OCCNC3=O)cc1 [BC19612]	1 to 10 µM	> 10 µM		
O=C1NCCOc2c1cc(Br)cc2S(=O)(=O)Nc1ccc(F)cc1Cl [BC19613]	> 10 µM	> 10 µM		
COc1ccc(NS(=O)(=O)c2cc(Br)cc3c2OCCNC3=O)cc1Cl [BC19614]	> 10 µM	> 10 µM		
N#Cc1ccc(NS(=O)(=O)c2cc(Br)cc3c2OCCNC3=O)cc1 [BC19615]	0.1 to 1 µM	> 10 µM		
CN1CCN(CCNC(=O)Nc2ccc3nc(-c4ccc(F)cc4)c(-c4ccc(F)cc4)nc3c2)CC1 [BC19616]	0.1 to 1 µM	1 to 10 µM		
O=C(NCCCN1CCCC1=O)Nc1ccc2nc(-c3ccc(F)cc3)c(-c3ccc(F)cc3)nc2c1 [BC19617]	0.1 to 1 µM	> 10 µM		
CN1CCN(C(=O)c2ccc3nc(-c4ccc(F)cc4)c(-c4ccc(F)cc4)nc3n2)CC1 [BC19618]	0.1 to 1 µM	> 10 µM		
CNc1ncc(-c2ccc3nc(-c4ccc(F)cc4)c(-c4ccc(F)cc4)nc3c2)o1 [BC19619]	1 to 10 µM	> 10 µM		
CC(C)[S+]([O-])c1sc(-c2cccc(F)c2)nc1S(=O)(=O)c1ccc(Cl)cc1 (stereo not shown) [BC19620]	> 10 µM	> 10 µM		
